The NIST ThermoML archive (doi:10.1021/je060148j)

Conditions: Liquid, Closed cell (Static) method

COC [dimethyl ether]
Conditions	vapor or sublimation pressure [kPa]
219.15 K	22.3
221.13 K	25.2
223.11 K	28.3
224.88 K	31.5
226.88 K	35.4
228.85 K	39.5
230.86 K	43.9
232.86 K	48.7
234.85 K	54.1
236.85 K	59.8
239.14 K	66.3
241.14 K	73.2
244.14 K	84
247.13 K	96.1
249.13 K	104.9
251.14 K	114.3
255.13 K	135.1
257.12 K	146.6
259.14 K	159
261.13 K	171.8
263.13 K	185.6
265.13 K	199.8
267.13 K	215.5
269.13 K	231.8
271.13 K	248.9
273.13 K	266.8
275.04 K	285.1
277.02 K	305
279.02 K	326.4
281.02 K	348.8
283.02 K	372.3
285.01 K	397
287 K	422.8
288.99 K	449.8
290.99 K	478.4
293.08 K	508.9
295.07 K	540
297.07 K	573
299.08 K	606.9
301.11 K	643.1
303.08 K	680.2
305.07 K	718.4
307.07 K	758.8
309.06 K	800.7
311.07 K	844.2
313.06 K	889.5
315.06 K	936.6
317.04 K	985.3
319.03 K	1036
321.03 K	1088.7
323.02 K	1143.3
325.02 K	1200.6
327.13 K	1262.3
329.02 K	1319.9
331.11 K	1385.3
333.11 K	1450.6
335.11 K	1518.8
337.1 K	1588.4
339.1 K	1660.3
341.08 K	1733.3
343.09 K	1811.3
345.09 K	1891.2
347.08 K	1972.8
349.08 K	2057.4
351.07 K	2144.3
353.05 K	2232.7
355.05 K	2326
357.05 K	2421.9
359.05 K	2520.3
361.04 K	2621.5
